# From patent US11434198B2, “Compounds and methods for the treatment of neurodegenerative diseases” (Resilio Therapeutics, LLC, priority 2016, dated 2022)
# Test: pH stability of prodrugs of DFMO in PBS buffer
# Format: physicochemical
# Conditions: for intact prodrug lost over the next 24 hours: 24 hours following the initial phase; for decrease in the amount of intact, non-degraded prodrug over the first hour of incubation: LC/MS/MS
# Procedure: The stability of prodrugs of DFMO to different pH conditions over time was assayed. Prodrugs were reconstituted in dimethylsulfoxide (DMSO), diluted into phosphate buffered saline (PBS) of different pH values, incubated for different lengths of time at room temperature, and then analyzed by LC/MS/MS for changes in the levels of each prodrug. […] Following this initial phase, the (2)-prodrug was reasonably stable over the next 24 hours so that less than 20% of the intact prodrug was lost at pH 3 and 5, and about 60% of the intact material was lost at pH 8 over a day. […] Similar results were obtained with the other prodrugs tested.
smiles,measurement,setting,value
"CC(OC(=O)NCCCC(N)(C(=O)O)C(F)F)OC(=O)C(C)C (stereo not shown) [(2)-prodrug, 2-amino-2-(difluoromethyl)-5-[1-(2-methylpropanoyloxy)ethoxycarbonylamino]pentanoic acid]","stability of intact, non-degraded prodrug over time at different pH (in words)","PBS of different pH values, room temperature",slowly lost
same,intact prodrug lost over the next 24 hours,"PBS pH 3, room temperature",less than 20%
same,"decrease in the amount of intact, non-degraded prodrug over the first hour of incubation","PBS pH 3, room temperature",about 60%
same,intact prodrug lost over the next 24 hours,"PBS pH 5, room temperature",less than 20%
same,"decrease in the amount of intact, non-degraded prodrug over the first hour of incubation","PBS pH 5, room temperature",30-35%
same,intact prodrug lost over the next 24 hours,"PBS pH 8, room temperature",about 60%
same,"decrease in the amount of intact, non-degraded prodrug over the first hour of incubation","PBS pH 8, room temperature",30-35%
